Data on 27 compounds can be found in US10519163B2, “Pyrrolopyrimidine derivatives as TAM inhibitors” (Incyte Corporation, priority 2015, dated 2019).

For assay [1], the target named is JAK2 (Homo sapiens (Human), UniProt O60674). Particulars: selectivity ratio, IC50 at 1 mM ATP; cited from earlier work.
The target of assay [2] is c-Mer (Homo sapiens (Human), UniProt Q12866). The assay is described as follows: TAM Kinase Assay (HTRF), c-Mer. The class given is biochemical.
Experimental: (§1) 0.1 ul test compounds dissolved in DMSO were transferred from compound plates to white 384-well assay plates (Greiner [sequence] plates). […] The plate was protected from light and incubated at room temperature for 60 min.
Assay [3] deals with phosphor-Axl (Homo sapiens (Human), UniProt P30530). The assay is described as follows: TAM Kinase Assay (HTRF), phosphor-Axl.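 Further: test enzyme was recombinant Axl protein, pre-activated by autophosphorylation with ATP and MgCl2.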 The class given is biochemical. Particulars: read-out: Phospho-Axl IC50. On the technique in general: Time-resolved FRET reads energy transfer from a long-lived donor to a nearby acceptor.
Experimental: Autophosphorylation of Axl was carried out by incubating the recombinant Axl protein (Life Technologies, PV4275) in buffer containing 50 mM Tris, pH7.5, 0.2 mg/ml Axl, 5 mM ATP, 20 mM MgCl2 and 2 mM DTT at room temperature for 1 hour.
as §1
Assay [4] deals with Tyro3 (Homo sapiens (Human), UniProt Q06418). Kind of assay: TAM Kinase Assay (HTRF), Tyro3. The class given is biochemical. The note with it: 0.366 nM Tyro3, HTRF, 60 min room temperature; read-out: Tyro3IC50.
Experimental: as §1
Assay [5] concerns tumor models with different histologies. The note with it: cited from earlier work.
The test system of assay [6] is NK cells. The note with it: cited from earlier work.
The mark [7] stands for this setting: 0.0625 nM c-Mer, HTRF, 60 min room temperature, read-out: c-Mer IC50.
Where [8] appears, read: 5.1 nM phosphor-Axl, HTRF, 60 min room temperature.

Like-named read-outs stand apart in the source and are kept apart here.

Sequence of Tyro3 (Q06418 41-890): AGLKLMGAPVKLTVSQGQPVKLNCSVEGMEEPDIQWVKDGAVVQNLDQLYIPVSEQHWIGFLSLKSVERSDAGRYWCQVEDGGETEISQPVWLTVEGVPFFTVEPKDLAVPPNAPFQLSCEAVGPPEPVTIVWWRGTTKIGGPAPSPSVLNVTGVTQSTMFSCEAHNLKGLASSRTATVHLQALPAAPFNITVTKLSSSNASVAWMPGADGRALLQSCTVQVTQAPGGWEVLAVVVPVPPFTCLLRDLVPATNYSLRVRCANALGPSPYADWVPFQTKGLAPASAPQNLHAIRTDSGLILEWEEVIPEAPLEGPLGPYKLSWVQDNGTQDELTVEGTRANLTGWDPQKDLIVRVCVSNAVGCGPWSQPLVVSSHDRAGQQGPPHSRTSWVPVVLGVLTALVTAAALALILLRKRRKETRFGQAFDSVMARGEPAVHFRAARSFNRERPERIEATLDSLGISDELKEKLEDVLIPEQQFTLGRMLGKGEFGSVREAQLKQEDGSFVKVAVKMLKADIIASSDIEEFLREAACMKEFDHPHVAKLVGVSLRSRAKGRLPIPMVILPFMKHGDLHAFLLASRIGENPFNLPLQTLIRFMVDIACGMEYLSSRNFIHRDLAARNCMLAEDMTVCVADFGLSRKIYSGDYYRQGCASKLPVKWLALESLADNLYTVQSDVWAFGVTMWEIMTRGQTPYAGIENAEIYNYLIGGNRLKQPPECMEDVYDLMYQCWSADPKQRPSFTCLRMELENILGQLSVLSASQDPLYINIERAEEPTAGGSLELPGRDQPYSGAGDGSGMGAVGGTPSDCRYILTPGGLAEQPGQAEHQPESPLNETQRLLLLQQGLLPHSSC
Sequence of phosphor-Axl (P30530 26-894): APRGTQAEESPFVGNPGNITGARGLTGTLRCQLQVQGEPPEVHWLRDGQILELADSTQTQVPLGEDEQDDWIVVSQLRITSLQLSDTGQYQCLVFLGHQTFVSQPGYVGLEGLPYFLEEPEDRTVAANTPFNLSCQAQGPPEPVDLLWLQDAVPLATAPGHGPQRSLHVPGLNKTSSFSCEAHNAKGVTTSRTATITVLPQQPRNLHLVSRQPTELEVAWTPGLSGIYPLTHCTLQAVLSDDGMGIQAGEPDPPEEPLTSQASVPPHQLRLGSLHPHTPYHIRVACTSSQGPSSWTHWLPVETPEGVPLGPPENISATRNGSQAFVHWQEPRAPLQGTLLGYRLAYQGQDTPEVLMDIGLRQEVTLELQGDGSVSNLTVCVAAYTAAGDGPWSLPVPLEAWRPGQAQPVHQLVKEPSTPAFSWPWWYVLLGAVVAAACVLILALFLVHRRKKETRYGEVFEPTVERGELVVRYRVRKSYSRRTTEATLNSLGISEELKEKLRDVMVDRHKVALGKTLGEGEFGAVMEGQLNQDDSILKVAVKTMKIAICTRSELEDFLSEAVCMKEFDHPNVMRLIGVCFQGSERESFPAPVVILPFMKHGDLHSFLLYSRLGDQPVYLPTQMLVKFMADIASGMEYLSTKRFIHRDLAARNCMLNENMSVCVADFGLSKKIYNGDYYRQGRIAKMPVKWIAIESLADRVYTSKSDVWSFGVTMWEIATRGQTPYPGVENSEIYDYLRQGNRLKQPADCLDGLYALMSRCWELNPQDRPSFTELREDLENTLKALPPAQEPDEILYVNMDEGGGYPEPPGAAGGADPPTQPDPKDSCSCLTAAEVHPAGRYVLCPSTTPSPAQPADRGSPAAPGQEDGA
Sequence of JAK2 (O60674 whole entry, species assumed): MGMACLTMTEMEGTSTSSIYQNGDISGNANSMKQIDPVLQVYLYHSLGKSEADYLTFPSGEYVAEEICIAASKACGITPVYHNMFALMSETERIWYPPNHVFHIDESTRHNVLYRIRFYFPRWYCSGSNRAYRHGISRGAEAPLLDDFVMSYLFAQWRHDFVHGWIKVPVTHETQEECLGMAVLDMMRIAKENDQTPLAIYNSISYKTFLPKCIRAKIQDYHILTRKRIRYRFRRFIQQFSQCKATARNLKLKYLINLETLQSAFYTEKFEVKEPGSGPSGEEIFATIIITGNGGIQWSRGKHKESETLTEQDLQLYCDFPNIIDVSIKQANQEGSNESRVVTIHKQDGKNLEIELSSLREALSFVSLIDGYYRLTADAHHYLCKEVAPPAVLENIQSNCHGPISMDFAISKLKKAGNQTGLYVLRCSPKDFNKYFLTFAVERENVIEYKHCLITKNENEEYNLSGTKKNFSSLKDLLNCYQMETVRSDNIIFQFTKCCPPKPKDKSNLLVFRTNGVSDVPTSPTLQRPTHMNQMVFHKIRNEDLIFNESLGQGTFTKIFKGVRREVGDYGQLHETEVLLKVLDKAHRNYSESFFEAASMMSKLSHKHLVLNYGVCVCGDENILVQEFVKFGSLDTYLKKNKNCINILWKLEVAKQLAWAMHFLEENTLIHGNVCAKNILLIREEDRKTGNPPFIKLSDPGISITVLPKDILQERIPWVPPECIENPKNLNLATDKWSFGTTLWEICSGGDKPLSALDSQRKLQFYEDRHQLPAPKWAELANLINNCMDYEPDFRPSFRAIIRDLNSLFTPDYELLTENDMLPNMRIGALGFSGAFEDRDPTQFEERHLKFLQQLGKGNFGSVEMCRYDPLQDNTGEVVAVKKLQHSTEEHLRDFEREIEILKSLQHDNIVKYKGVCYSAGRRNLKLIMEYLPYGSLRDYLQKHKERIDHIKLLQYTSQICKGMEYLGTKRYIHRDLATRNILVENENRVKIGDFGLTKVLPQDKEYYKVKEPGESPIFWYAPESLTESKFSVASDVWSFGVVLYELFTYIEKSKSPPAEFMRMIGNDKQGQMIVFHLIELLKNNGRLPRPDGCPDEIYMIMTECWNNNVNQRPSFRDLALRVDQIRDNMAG

Take `N#CCC1(n2cc(-c3ncnc4[nH]ccc34)cn2)CN(C2CCN(C(=O)c3ccnc(C(F)(F)F)n3)CC2)C1` [Compound 9, [3-[4-(7H-pyrrolo[2,3-d]pyrimidin-4-yl)-1H-pyrazol-1-yl]-1-(1-{[2-(trifluoromethyl)pyrimidin-4-yl]carbonyl}piperidin-4-yl)azetidin-3-yl]acetonitrile, reference compound]: in assay [1], the JAK2/JAK1 is given as above 10.
On to `NCC1(c2cncc(-c3ncnc4[nH]ccc34)c2)Cc2ccccc2C1` [Example 1, 1-{2-[5-(7H-Pyrrolo[2,3-d]pyrimidin-4-yl)pyridin-3-yl]-2,3-dihydro-1H-inden-2-yl}methanamine], for which the IC50 was below 500 nM in assay [2] (setting [7]), below 500 nM in assay [3] (setting [8]) and above 3000 nM in assay [4].
For `NCC1(c2cccc(-c3ncnc4[nH]ccc34)n2)Cc2ccccc2C1` [Example 2, 1-{2-[6-(7H-Pyrrolo[2,3-d]pyrimidin-4-yl)pyridin-2-yl]-2,3-dihydro-1H-inden-2-yl}methanamine], the IC50 in assay [2] (setting [7]) is 1000 to 3000 nM; in assay [3] (setting [8]), 1000 to 3000 nM; in assay [4] it was above 3000 nM.
With `NCC1(c2cc(-c3ncnc4[nH]ccc34)ccn2)Cc2ccccc2C1` [Example 3, 1-{2-[4-(7H-Pyrrolo[2,3-d]pyrimidin-4-yl)pyridin-2-yl]-2,3-dihydro-1H-inden-2-yl}methanamine], the IC50 was below 500 nM in assay [2] (setting [7]), below 500 nM in assay [3] (setting [8]) and 1000 to 3000 nM in assay [4].
Take `NCC1(c2ccnc(-c3ncnc4[nH]ccc34)c2)Cc2ccccc2C1` [Example 4, 1-{2-[2-(7H-Pyrrolo[2,3-d]pyrimidin-4-yl)pyridin-4-yl]-2,3-dihydro-1H-inden-2-yl}methanamine]: the IC50 was 500 to 1000 nM in assay [2] (setting [7]), 500 to 1000 nM in assay [3] (setting [8]) and above 3000 nM in assay [4].
In the case of `NCC1(c2cccc(-c3ncnc4[nH]ccc34)c2)Cc2ccncc2C1` (stereo not drawn) [Example 5, 1-{6-[3-(7H-Pyrrolo[2,3-d]pyrimidin-4-yl)phenyl]-6,7-dihydro-5H-cyclopenta[c]pyridin-6-yl}methanamine], the IC50 was below 500 nM in assay [2] (setting [7]), below 500 nM in assay [3] (setting [8]) and 1000 to 3000 nM in assay [4].
In the case of `NCC1(c2cccc(-c3ncnc4[nH]ccc34)c2)Cc2cccnc2C1` (stereo not drawn) [Example 6, 1-{6-[3-(7H-Pyrrolo[2,3-d]pyrimidin-4-yl)phenyl]-6,7-dihydro-5H-cyclopenta[b]pyridin-6-yl}methanamine], the values for the IC50 in assay [2] (setting [7]), in assay [3] (setting [8]) and in assay [4] were below 500 nM, below 500 nM and above 3000 nM, respectively.
For the compound `NCC1(c2cc(-c3ncnc4[nH]ccc34)cc(Cl)n2)Cc2ccccc2C1` [Example 7, 1-{2-[6-Chloro-4-(7H-pyrrolo[2,3-d]pyrimidin-4-yl)pyridin-2-yl]-2,3-dihydro-1H-inden-2-yl}methanamine], the IC50 in assay [2] (setting [7]) was below 500 nM; in assay [3] (setting [8]), below 500 nM; in assay [4] it was above 3000 nM.
On to `CC(=O)NCC1(c2cc(-c3ncnc4[nH]ccc34)ccn2)Cc2ccccc2C1` [Example 8, N-({2-[4-(7H-Pyrrolo[2,3-d]pyrimidin-4-yl)pyridin-2-yl]-2,3-dihydro-1H-inden-2-yl}methyl)acetamide], for which the IC50 in assay [3] (setting [8]) was 1000 to 3000 nM; in assay [4], above 3000 nM.
For `CC(=O)NCC1(c2cccc(-c3ncnc4[nH]ccc34)c2)Cc2ccncc2C1` (stereo not drawn) [Example 10, N-({6-[3-(7H-Pyrrolo[2,3-d]pyrimidin-4-yl)phenyl]-6,7-dihydro-5H-cyclopenta[c]pyridin-6-yl}methyl)acetamide] the same measures were 1000 to 3000 nM and above 3000 nM.
For the compound `NCC1(c2cccc(-c3ncnc4[nH]ccc34)c2)Cc2ccccc2C1` [Example 11, 1-{2-[3-(7H-Pyrrolo[2,3-d]pyrimidin-4-yl)phenyl]-2,3-dihydro-1H-inden-2-yl}methanamine], the IC50 was below 500 nM in assay [2] (setting [7]), below 500 nM in assay [3] (setting [8]) and 1000 to 3000 nM in assay [4].
For `OCC1(c2cccc(-c3ncnc4[nH]ccc34)c2)Cc2ccccc2C1` [Example 12, {2-[3-(7H-Pyrrolo[2,3-d]pyrimidin-4-yl)phenyl]-2,3-dihydro-1H-inden-2-yl}methanol], the IC50 in assay [2] (setting [7]) was below 500 nM; in assay [3] (setting [8]), below 500 nM; in assay [4] it was above 3000 nM.
Take `CC(=O)NCC1(c2cccc(-c3ncnc4[nH]ccc34)c2)Cc2ccccc2C1` [Example 16, N-({2-[3-(7H-Pyrrolo[2,3-d]pyrimidin-4-yl)phenyl]-2,3-dihydro-1H-inden-2-yl}methyl)acetamide]: the values for the IC50 in assay [2] (setting [7]), in assay [3] (setting [8]) and in assay [4] were below 500 nM, below 500 nM and above 3000 nM, respectively.
With `CC(C)C(=O)NCC1(c2cccc(-c3ncnc4[nH]ccc34)c2)Cc2ccccc2C1` [Example 17, 2-Methyl-N-({2-[3-(7H-pyrrolo[2,3-d]pyrimidin-4-yl)phenyl]-2,3-dihydro-1H-inden-2-yl}methyl)propanamide], the figures for the IC50 in assay [2] (setting [7]), in assay [3] (setting [8]) and in assay [4] were below 500 nM, below 500 nM and above 3000 nM, respectively.
For the compound `O=C(NCC1(c2cccc(-c3ncnc4[nH]ccc34)c2)Cc2ccccc2C1)C1CC1` [Example 18, N-({2-[3-(7H-Pyrrolo[2,3-d]pyrimidin-4-yl)phenyl]-2,3-dihydro-1H-inden-2-yl}methyl)cyclopropanecarboxamide], the values for the IC50 in assay [2] (setting [7]), in assay [3] (setting [8]) and in assay [4] were below 500 nM, below 500 nM and above 3000 nM, respectively.
As for `FCC1(c2cccc(-c3ncnc4[nH]ccc34)c2)Cc2ccccc2C1` [Example 19, 4-{3-[2-(Fluoromethyl)-2,3-dihydro-1H-inden-2-yl]phenyl}-7H-pyrrolo[2,3-d]pyrimidine], the IC50 in assay [2] (setting [7]), in assay [3] (setting [8]) and in assay [4] was above 3000 nM each time.
With `FC(F)C1(c2cccc(-c3ncnc4[nH]ccc34)c2)Cc2ccccc2C1` [Example 20, 4-{3-[2-(Difluoromethyl)-2,3-dihydro-1H-inden-2-yl]phenyl}-7H-pyrrolo[2,3-d]pyrimidine], the IC50 in assay [2] (setting [7]), in assay [3] (setting [8]) and in assay [4] was above 3000 nM throughout.
For the compound `CS(=O)(=O)NCC1(c2cccc(-c3ncnc4[nH]ccc34)c2)Cc2ccccc2C1` [Example 21, N-({2-[3-(7H-Pyrrolo[2,3-d]pyrimidin-4-yl)phenyl]-2,3-dihydro-1H-inden-2-yl}methyl)methanesulfonamide], the IC50 in assay [2] (setting [7]) was 1000 to 3000 nM; in assay [3] (setting [8]) it was 500 to 1000 nM; in assay [4], above 3000 nM.
For `COC(=O)NCC1(c2cccc(-c3ncnc4[nH]ccc34)c2)Cc2ccccc2C1` [Example 22, Methyl ({2-[3-(7H-pyrrolo[2,3-d]pyrimidin-4-yl)phenyl]-2,3-dihydro-1H-inden-2-yl}methyl)carbamate] the same measures were below 500 nM, below 500 nM and above 3000 nM.
Consider `CN(C)CC1(c2cccc(-c3ncnc4[nH]ccc34)c2)Cc2ccccc2C1` [Example 23, N,N-Dimethyl-1-{2-[3-(7H-pyrrolo[2,3-d]pyrimidin-4-yl)phenyl]-2,3-dihydro-1H-inden-2-yl}methanamine], for which the IC50 in assay [2] (setting [7]) is below 500 nM; in assay [3] (setting [8]) it was below 500 nM; in assay [4] it was above 3000 nM.
In the case of `CNCC1(c2cccc(-c3ncnc4[nH]ccc34)c2)Cc2ccccc2C1` [Example 24, N-Methyl-1-{2-[3-(7H-pyrrolo[2,3-d]pyrimidin-4-yl)phenyl]-2,3-dihydro-1H-inden-2-yl}methanamine], the results for the IC50 in assay [2] (setting [7]), in assay [3] (setting [8]) and in assay [4] were below 500 nM, below 500 nM and above 3000 nM, respectively.
On to `COCC1(c2cccc(-c3ncnc4[nH]ccc34)c2)Cc2ccccc2C1` [Example 25, 4-{3-[2-(Methoxymethyl)-2,3-dihydro-1H-inden-2-yl]phenyl}-7H-pyrrolo[2,3-d]pyrimidine], for which the IC50 in assay [2] (setting [7]) was above 3000 nM; in assay [3] (setting [8]), 1000 to 3000 nM; in assay [4] it was above 3000 nM.
In the case of `O=C(NCC1(c2cccc(-c3ncnc4[nH]ccc34)c2)Cc2ccccc2C1)C1CCCC1` [Example 27, N-({2-[3-(7H-Pyrrolo[2,3-d]pyrimidin-4-yl)phenyl]-2,3-dihydro-1H-inden-2-yl}methyl)cyclopentanecarboxamide], the IC50 was below 500 nM in assay [3] (setting [8]) and above 3000 nM in assay [4].
Turning to `O=C(NCC1(c2cccc(-c3ncnc4[nH]ccc34)c2)Cc2ccccc2C1)c1cccs1` [Example 28], the results for the IC50 in assay [2] (setting [7]), in assay [3] (setting [8]) and in assay [4] were above 3000 nM, 1000 to 3000 nM and above 3000 nM, respectively.
Turning to `O=C(NCC1(c2cccc(-c3ncnc4[nH]ccc34)c2)Cc2ccccc2C1)c1ccno1` [Example 31, N-({2-[3-(7H-Pyrrolo[2,3-d]pyrimidin-4-yl)phenyl]-2,3-dihydro-1H-inden-2-yl}methyl)isoxazole-5-carboxamide], the IC50 in assay [2] (setting [7]), in assay [3] (setting [8]) and in assay [4] was above 3000 nM throughout.
`Cn1cc(C(=O)NCC2(c3cccc(-c4ncnc5[nH]ccc45)c3)Cc3ccccc3C2)cn1` [Example 33, 1-Methyl-N-({2-[3-(7H-pyrrolo[2,3-d]pyrimidin-4-yl)phenyl]-2,3-dihydro-1H-inden-2-yl}methyl)-1H-pyrazole-4-carboxamide]: the IC50 in assay [2], in assay [3] and in assay [4] was above 3000 nM each time.
Consider `CCOc1cn(-c2ccc(F)cc2C)nc1C(=O)Nc1ccc(Oc2ccnc3cc(OC)c(OC)cc23)c(F)c1` [LDC1267], for which the “metastasis in tumor models” value in assay [5] was “blocks metastasis”. For the same compound, the “activation of NK cells” value in assay [6] is “activates NK cells”.
